Article PMC3756485 (The Biochemical journal, 2012)

Legend:
[1] = target: T1, PvENT4 (Plasmodium vivax, UniProt A5K9X9); assay type: cell-based; settings: 60 min; for Uptake of radiolabeled substrate relative to H2O-injected oocytes: 1.5 μM radiolabeled compound; for Saturability of concentration-dependent uptake (Michaelis-Menten): concentrations up to 10 mM
[2] = tested on: PfENT1; settings: cited from earlier work
[3] = target: T2, PfENT4 (Plasmodium falciparum, UniProt Q8I2A8); assay type: cell-based; settings: 60 min; for Uptake of radiolabeled substrate relative to H2O-injected oocytes: 1.5 μM radiolabeled compound; for Saturability of concentration-dependent uptake (Michaelis-Menten): concentrations up to 10 mM
[4] = target: T2, PfENT4; assay: cell-based
[5] = target: T1, PvENT4; assay: cell-based
[6] = tested on: P. falciparum phosphodiesterase-1; settings: cited from earlier work
[7] = tested on: P. falciparum parasites; settings: read-out: IC50, in vitro growth; P. falciparum FCR-3 strain parasites; cited from earlier work
[8] = read-out: Inhibition of adenine uptake

Q: With Nc1ncnc2c1ncn2[C@@H]1O[C@H](COP(=O)(O)O)[C@@H](O)[C@H]1O [AMP, adenosine monophosphate] as the molecule, how does the “Transport of radiolabeled substrate” value ([1]; PvENT4 oocytes, 1.5 μM, in presence of 250 μM α,β-methyleneADP) read?
A: not observed

Q: And the “Substrate of PfENT1” value [2]?
A: not substrates

Q: And the “Transport of radiolabeled substrate” value ([3]; PfENT4 oocytes, 1.5 μM, in presence of 250 μM α,β-methyleneADP)?
A: not observed

Q: Which Ki [4] does the source give for C/C(=C\CNc1ncnc2[nH]cnc12)CO [trans-zeatin] here?
A: 20 ± 3 µM

Q: What about the Ki [5] of the same molecule?
A: 193 ± 21 µM

Q: Which inhibition at 10 µM [4, 8] does the source give for OCCN(CCO)c1nc(N2CCCCC2)c2nc(N(CCO)CCO)nc(N3CCCCC3)c2n1 [dipyridamole] here?
A: ~80%

Q: What about the “Inhibition of recombinant P. falciparum phosphodiesterase-1” value [6] of the same molecule?
A: inhibits

Q: What about the inhibition at 10 µM [5, 8] of the same molecule?
A: ~80%

Q: And the “Sensitivity of PfENT1 to inhibitor” value [2]?
A: insensitive

Q: Which results are given for O=[N+]([O-])c1ccc(CSc2ncnc3c2ncn3[C@@H]2O[C@H](CO)[C@@H](O)[C@H]2O)cc1 [NBMPR, nitrobenzylmercaptopurineriboside]?
A: Inhibition of adenine uptake ([4]; PfENT4 oocytes, 150 nM [3H]adenine, 60 min, compound 10 μM): insensitive; Inhibition of adenine uptake ([5]; PvENT4 oocytes, 150 nM [3H]adenine, 60 min, compound 10 μM): insensitive

Q: With Nc1ncnc2c1ncn2[C@H]1C[C@H](O)[C@@H](CO)O1 [2′-deoxyadenosine] as the molecule, how does the “Uptake of radiolabeled substrate relative to H2O-injected oocytes” value [1] read?
A: greater uptake

Q: And the “Uptake of radiolabeled substrate relative to H2O-injected oocytes” value [3]?
A: greater uptake

Q: For Nc1ncnc2c1ncn2[C@@H]1O[C@H](CO)[C@@H](O)[C@H]1O [adenosine], which “Uptake of radiolabeled substrate relative to H2O-injected oocytes” value [1] is on record?
A: greater uptake

Q: And the “Saturability of concentration-dependent uptake (Michaelis-Menten)” value ([1]; PvENT4 oocytes)?
A: not saturable

Q: And the “Uptake of radiolabeled substrate relative to H2O-injected oocytes” value [3]?
A: greater uptake

Q: What about the “Saturability of concentration-dependent uptake (Michaelis-Menten)” value ([3]; PfENT4 oocytes) of the same molecule?
A: not saturable

Q: What does the source list for Nc1nc2c(ncn2[C@H]2C[C@H](O)[C@@H](CO)O2)c(=O)[nH]1 [2′-deoxyguanosine]?
A: Uptake of radiolabeled substrate relative to H2O-injected oocytes [1]: greater uptake; Uptake of radiolabeled substrate relative to H2O-injected oocytes [3]: greater uptake

Q: With O=c1[nH]c(=O)c2[nH]c(=O)[nH]c2[nH]1 [urate] as the molecule, how does the “Competition for adenine transport” value ([4]; PfENT4 oocytes, 150 nM [3H]adenine, 60 min, compound 500 μM) read?
A: did not compete

Q: What about the “Competition for adenine transport” value ([5]; PvENT4 oocytes, 150 nM [3H]adenine, 60 min, compound 500 μM) of the same molecule?
A: did not compete

Q: Which results are given for Nc1ncnc2[nH]cnc12 [adenine]?
A: Ki [4]: 7 ± 2 µM; Uptake of radiolabeled substrate relative to H2O-injected oocytes [1]: greater uptake; Saturability of concentration-dependent uptake (Michaelis-Menten) ([1]; PvENT4 oocytes): not saturable; Ki [5]: 6 ± 2 µM; Uptake of radiolabeled substrate relative to H2O-injected oocytes [3]: greater uptake; Saturability of concentration-dependent uptake (Michaelis-Menten) ([3]; PfENT4 oocytes): not saturable

Q: Which “Uptake of radiolabeled substrate relative to H2O-injected oocytes” value [1] does the source give for Cc1cn([C@H]2C[C@H](O)[C@@H](CO)O2)c(=O)[nH]c1=O [thymidine] here?
A: displayed uptake

Q: What about the “Uptake of radiolabeled substrate relative to H2O-injected oocytes” value [3] of the same molecule?
A: displayed uptake

Q: For Cc1c[nH]c(=O)[nH]c1=O [thymine], which “Uptake of radiolabeled substrate relative to H2O-injected oocytes” value [1] is on record?
A: less accumulation

Q: With CC(C)=CCNc1ncnc2nc[nH]c12 [isopentenyl adenine] as the molecule, how does the IC50 [7] read?
A: 8.34 µM

Q: Which “Uptake of radiolabeled substrate relative to H2O-injected oocytes” value [1] does the source give for O=c1cc[nH]c(=O)[nH]1 [uracil] here?
A: less accumulation

Q: With O=c1[nH]cnc2c1ncn2[C@@H]1O[C@H](CO)[C@@H](O)[C@H]1O [inosine] as the molecule, how does the “Uptake of radiolabeled substrate relative to H2O-injected oocytes” value [1] read?
A: greater uptake

Q: What about the “Uptake of radiolabeled substrate relative to H2O-injected oocytes” value [3] of the same molecule?
A: greater uptake

Q: Which “Inhibition of [3H]adenine uptake at 7 mM compared with 2 mM” value ([4]; PfENT4 oocytes, 150 nM [3H]adenine, 60 min) does the source give for O=c1[nH]cnc2c([C@@H]3N[C@H](CO)[C@@H](O)[C@H]3O)c[nH]c12 [Immucillin-H] here?
A: significantly greater inhibition

Q: With O=c1[nH]cnc2nc[nH]c12 [hypoxanthine] as the molecule, how does the “Inhibition of adenine uptake” value ([4]; PfENT4 oocytes, 150 nM [3H]adenine, 60 min, concentration shown only in Figure 9) read?
A: did not inhibit

Q: And the “Uptake of radiolabeled substrate relative to H2O-injected oocytes” value [1]?
A: no observed uptake

Q: And the “Inhibition of adenine uptake” value ([5]; PvENT4 oocytes, 150 nM [3H]adenine, 60 min, concentration shown only in Figure 9)?
A: did not inhibit

Q: What about the “Uptake of radiolabeled substrate relative to H2O-injected oocytes” value [3] of the same molecule?
A: no observed uptake
